Test results taken from US11981658B2, “Substituted aminopyridine compounds as EGFR inhibitors” (YUHAN CORPORATION, priority 2021, dated 2024).
Where two headings read alike, the source gives them in different places.

Key:
[1] = target: EGFR Del19/C797S (Homo sapiens, UniProt P00533, C797S/DEL746-750); test: Biochemical EGFR kinase inhibition assay (Lance Ultra TR-FRET), double mutant del19/C797S
In short: (§1)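 In this biochemical assay, phosphorylation after a one-hour room-temperature reaction was detected with europium-labelled anti-phosphopeptide antibody at 2 nM final concentration.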

[2] = target: EGFR Del19/T790M/C797S (Homo sapiens, UniProt P00533, C797S/DEL746-750/T790M); test: Biochemical EGFR kinase inhibition assay (Lance Ultra TR-FRET), triple mutant del19/T790M/C797S
In short: as §1

[3] = target: EGFR L858R/C797S (Homo sapiens, UniProt P00533, C797S/L858R); test: Biochemical EGFR kinase inhibition assay (Lance Ultra TR-FRET), double mutant L858R/C797S
In short: as §1

[4] = target: EGFR L858R/T790M/C797S (Homo sapiens, UniProt P00533, C797S/L858R/T790M); test: Biochemical EGFR kinase inhibition assay (Lance Ultra TR-FRET), triple mutant L858R/T790M/C797S
In short: as §1

[5] = target: EGFR wildtype (WT) (Homo sapiens, UniProt P00533); test: Biochemical EGFR kinase inhibition assay (Lance Ultra TR-FRET), wildtype
In short: as §1

[6] = IC50 Del19/C797S (nM), 100 μM ATP
[7] = IC50 Del19/T790M/C797S (nM), 100 μM ATP
[8] = Km ATP, read-out: IC50 Del19/T790M/C797S (nM), Km ATP
[9] = IC50 L858R/C797S (nM), 100 μM ATP
[10] = IC50 L858R/T790M/C797S (nM), 100 μM ATP
[11] = Km ATP, read-out: IC50 L858R/T790M/C797S (nM), Km ATP
[12] = Km ATP, read-out: IC50 Del19/C797S (nM), Km ATP
[13] = Km ATP, read-out: IC50 L858R/C797S (nM), Km ATP
[14] = Km ATP, read-out: IC50 WT (nM), Km ATP

For `CC1(O)CCN(c2cc(Nc3ccnc(-c4cnn(S(=O)(=O)C5CC5)c4)n3)ncc2C#Cc2ccc(C(=O)N3CCC(O)CC3)cc2)CC1` [Example 442, (4-((6-((2-(1-(Cyclopropylsulfonyl)-1H-pyrazol-4-yl)pyrimidin-4-yl)amino)-4-(4-hydroxy-4-methylpiperidin-1-yl)pyridin-3-yl)ethynyl)phenyl)(4-hydroxypiperidin-1-yl)methanone], the IC50 [1, 6] was 1.3 nM, the IC50 [2, 7] was 0.9 nM and the IC50 [2, 8] was 0.7 nM. For the same molecule, the IC50 [3, 9] was 20.3 nM, the IC50 [4, 10] was 0.3 nM and the IC50 [4, 11] was 0.1 nM. For the same molecule, the IC50 ([5]; IC50 WT (nM), 100 μM ATP) was 9930 nM.

Work on `O=C(c1ccc(C#Cc2cnc(Nc3ccnc(-c4cnn(S(=O)(=O)C5CC5)c4)n3)cc2NC[C@H]2CC[C@H](CO)CC2)cc1)N1CCC(O)CC1` [Example 443, (4-((6-((2-(1-(Cyclopropylsulfonyl)-1H-pyrazol-4-yl)pyrimidin-4-yl)amino)-4-((((1 r,4r)-4-(hydroxymethyl)cyclohexyl)methyl)amino)pyridin-3-yl)ethynyl)phenyl)(4-hydroxypiperidin-1-yl)methanone] yielded an IC50 [1, 6] of 53.5 nM, an IC50 [2, 7] of 7.7 nM and an IC50 [2, 8] of 4.3 nM. It also gave an IC50 [3, 9] of 4610 nM, an IC50 [4, 10] of 4 nM and an IC50 [4, 11] of 1.2 nM. For the same molecule, the IC50 ([5]; IC50 WT (nM), 100 μM ATP) was over 10000 nM.

For `O=C(c1ccc(C#Cc2cnc(Nc3ccnc(-c4cnn(S(=O)(=O)C5CC5)c4)n3)cc2N2CCC[C@@H](O)C2)cc1)N1CCC(O)CC1` [Example 444, (R)-(4-((6-((2-(1-(Cyclopropylsulfonyl)-1H-pyrazol-4-yl)pyrimidin-4-yl)amino)-4-(3-hydroxypiperidin-1-yl)pyridin-3-yl)ethynyl)phenyl)(4-hydroxypiperidin-1-yl)methanone], the IC50 [1, 6] was 10.2 nM, the IC50 [2, 7] was 1.5 nM and the IC50 [2, 8] was 0.9 nM. The IC50 [3, 9] was 549 nM, the IC50 [4, 10] was 1.5 nM and the IC50 [4, 11] was 0.3 nM. The IC50 ([5]; IC50 WT (nM), 100 μM ATP) was over 10000 nM.

Molecule `O=C(c1ccc(C#Cc2cnc(Nc3ccnc(-c4cnn(S(=O)(=O)C5CC5)c4)n3)cc2N2CCC[C@H](O)C2)cc1)N1CCC(O)CC1` [Example 445, (S)-(4-((6-((2-(1-(Cyclopropylsulfonyl)-1H-pyrazol-4-yl)pyrimidin-4-yl)amino)-4-(3-hydroxypiperidin-1-yl)pyridin-3-yl)ethynyl)phenyl)(4-hydroxypiperidin-1-yl)methanone] has an IC50 [1, 6] of 2 nM, an IC50 [2, 7] of 0.9 nM and an IC50 [2, 8] of 0.5 nM. It also gave an IC50 [3, 9] of 104 nM, an IC50 [4, 10] of 0.4 nM and an IC50 [4, 11] of 0.1 nM. The IC50 ([5]; IC50 WT (nM), 100 μM ATP) was over 10000 nM.

`CC1(CO)CCN(c2cc(Nc3ccnc(-c4cnn(S(=O)(=O)C5CC5)c4)n3)ncc2C#Cc2ccc(C(=O)N3CCC(O)CC3)cc2)CC1` [Example 446, (4-((6-((2-(1-(Cyclopropylsulfonyl)-1H-pyrazol-4-yl)pyrimidin-4-yl)amino)-4-(4-(hydroxymethyl)-4-methylpiperidin-1-yl)pyridin-3-yl)ethynyl)phenyl)(4-hydroxypiperidin-1-yl)methanone] showed an IC50 [1, 6] of 1.3 nM, an IC50 [2, 7] of 1.2 nM and an IC50 [2, 8] of 1 nM. For the same molecule, the IC50 [3, 9] was 18.9 nM, the IC50 [4, 10] was 0.4 nM and the IC50 [4, 11] was 0.2 nM. For the same molecule, the IC50 ([5]; IC50 WT (nM), 100 μM ATP) was 2670 nM.

For `C[C@]1(O)CCCN(c2cc(Nc3ccnc(-c4cnn(S(=O)(=O)C5CC5)c4)n3)ncc2C#Cc2cnn(CCF)c2)C1` [Example 447, (S)-1-(2-((2-(1-(Cyclopropylsulfonyl)-1H-pyrazol-4-yl)pyrimidin-4-yl)amino)-5-((1-(2-fluoroethyl)-1H-pyrazol-4-yl)ethynyl)pyridin-4-yl)-3-methylpiperidin-3-ol], the IC50 [1, 6] was 2.1 nM, the IC50 [1, 12] was 1.5 nM and the IC50 [2, 7] was 0.4 nM. For the same molecule, the IC50 [2, 8] was 0.3 nM, the IC50 [3, 9] was 59.8 nM and the IC50 [3, 13] was 3.5 nM. For the same molecule, the IC50 [4, 10] was 0.5 nM, the IC50 [4, 11] was 0.2 nM and the IC50 ([5]; IC50 WT (nM), 100 μM ATP) was over 10000 nM. For the same molecule, the IC50 [5, 14] was 16.9 nM.

With `C[C@]1(O)CCCN(c2cc(Nc3ccnc(-c4cnn(S(=O)(=O)C5CC5)c4)n3)ncc2C#Cc2cnn(C(F)(F)F)c2)C1` [Example 448, (S)-1-(2-((2-(1-(Cyclopropylsulfonyl)-1H-pyrazol-4-yl)pyrimidin-4-yl)amino)-5-((1-(trifluoromethyl)-1H-pyrazol-4-yl)ethynyl)pyridin-4-yl)-3-methylpiperidin-3-ol] the IC50 [1, 6] was 44.7 nM, the IC50 [1, 12] was 27.7 nM and the IC50 [2, 7] was 1.7 nM. It also gave an IC50 [2, 8] of 1 nM, an IC50 [3, 9] of 503 nM and an IC50 [3, 13] of 5.8 nM. For the same molecule, the IC50 [4, 10] was 6.1 nM, the IC50 [4, 11] was 1.2 nM and the IC50 ([5]; IC50 WT (nM), 100 μM ATP) was over 10000 nM. The IC50 [5, 14] was 300 nM.

`CC1(CO)CCN(c2cc(Nc3ccnc(N4CCN(S(=O)(=O)C5CC5)CC4)n3)ncc2C#Cc2cnn(C(F)(F)F)c2)CC1` [Example 449, (1-(2-((2-(4-(Cyclopropylsulfonyl)piperazin-1-yl)pyrimidin-4-yl)amino)-5-((1-(trifluoromethyl)-1H-pyrazol-4-yl)ethynyl)pyridin-4-yl)-4-methylpiperidin-4-yl)methanol] was tested, and the IC50 [1, 12] was 268 nM, the IC50 [2, 8] was 165 nM and the IC50 [3, 13] was 69.3 nM. For the same molecule, the IC50 [4, 11] was 51.7 nM and the IC50 [5, 14] was 564 nM.

Molecule “(1-(2-((2-(1-(Cyclopropylsulfonyl)-1H-pyrazol-4-yl)pyrimidin-4-yl)amino)-5-((5-((3,3-difluoroazetidin-1-yl)methyl)-1-(2,2-difluoroethyl)-1H-pyrrol-3-yl)ethynyl)pyridin-4-yl)-4-methylpiperidin-4-yl)methanol [Example 248]” has an IC50 ([1]; ATP at Km, read-out: IC50 Del19/C797S (nM), Km ATP) of 9.9 nM, an IC50 ([1]; read-out: IC50 Del19/C797S (nM), 100 μM ATP) of 8.6 nM and an IC50 ([2]; ATP at Km, read-out: IC50 Del19/T790M/C797S (nM), Km ATP) of 8.3 nM. The IC50 ([2]; read-out: IC50 Del19/T790M/C797S (nM), 100 μM ATP) was 13.8 nM, the IC50 ([3]; ATP at Km, read-out: IC50 L858R/C797S (nM), Km ATP) was 16.6 nM and the IC50 ([3]; read-out: IC50 L858R/C797S (nM), 100 μM ATP) was 39.4 nM. For the same molecule, the IC50 ([4]; read-out: IC50 L858R/T790M/C797S (nM), 100 μM ATP) was 11.4 nM, the IC50 ([5]; ATP at Km, read-out: IC50 WT (nM), Km ATP) was 30.1 nM and the IC50 ([5]; read-out: IC50 WT (nM), 100 μM ATP) was 6600 nM.
